The numbers were not newly measured in PubChem BioAssay AID1259409 (Chemical Carcinogenesis Research Information System (CCRIS), 2018), which cites them from elsewhere.

For this data set, the system named is rodent chemically induced tumor inhibition, incidence and multiplicity. Description: CCRIS tumor inhibitor studies. Conditions: Species: RAT; for tumour outcome (control, treated, inhibition, significance): Carcinogen: DIETHYLNITROSAMINE, 55-18-5, N-METHYL-N-NITROSOUREA, 684-93-5, N-BUTYL-N-(4-HYDROXYBUTYL)NITROSAMINE, 3817-11-6, DIMETHY, Dose [Inhibitor]: 0, Route [Inhibitor]: ORAL, Strain/Sex: F344/MALE, Dose [Carcinogen]: 100 MG/KG BW DEN ONCE FOLLOWED BY 20 MG/KG BW MNU 4 TIMES AND 0.05% BBN IN DRINKING WATER DURING FIRST 2 WK THEN 40 MG/K, Promoter: NONE USED.

Regarding `CCCCCCOc1cc(C)c(O)c(C)c1C`, the “tumour outcome (control, treated, inhibition, significance)” value was 33%, 0%, 100%, p<0.05 (1% IN THE DIET FOR 24 WK BEGINNING 1 DAY POST CARCINOGEN TREATMENT (STUDY DURATION: 28 WK), Target Tissue: Type of Lesion: SMALL INTESTINE: ADENOMA); 7%, 8%, -14%, not significant (1% IN THE DIET FOR 24 WK BEGINNING 1 DAY POST CARCINOGEN TREATMENT (STUDY DURATION: 28 WK), Target Tissue: Type of Lesion: THYROID: CARCINOMA); 7%, 0%, 100%, not significant (1% IN THE DIET FOR 24 WK BEGINNING 1 DAY POST CARCINOGEN TREATMENT (STUDY DURATION: 28 WK), Target Tissue: Type of Lesion: URINARY BLADDER: CARCINOMA); 7%, 0%, 100%, not significant (1% IN THE DIET FOR 24 WK BEGINNING 1 DAY POST CARCINOGEN TREATMENT(STUDY DURATION: 28 WK), Target Tissue: Type of Lesion: SMALL INTESTINE: CARCINOMA); 7%, 21%, -200%, not significant (1% IN THE DIET FOR 30 D BEGINNING 1 D PRIOR TO CARCINOGEN TREATMENT (STUDY DURATION: 28 WK), Target Tissue: Type of Lesion: URINARY BLADDER: PAPILLOMA); 7%, 0%, 100%, not significant (1% IN THE DIET FOR 30 D BEGINNING 1 DAY PRIOR TO CARCINOGEN TREATMENT (STUDY DURATION: 28 WK), Target Tissue: Type of Lesion: LARGE INTESTINE: CARCINOMA). The “tumour outcome (control, treated, inhibition, significance)” value was 33%, 14%, 58%, not significant (1% IN THE DIET FOR 30 D BEGINNING 1 DAY PRIOR TO CARCINOGEN TREATMENT (STUDY DURATION: 28 WK), Target Tissue: Type of Lesion: SMALL INTESTINE: ADENOMA); 7%, 0%, 100%, not significant (1% IN THE DIET FOR 30 D BEGINNING 1 DAY PRIOR TO CARCINOGEN TREATMENT (STUDY DURATION: 28 WK), Target Tissue: Type of Lesion: THYROID: CARCINOMA); 7%, 14%, -100%, not significant (1% IN THE DIET FOR 30 D BEGINNING 1 DAY PRIOR TO CARCINOGEN TREATMENT (STUDY DURATION: 28 WK), Target Tissue: Type of Lesion: URINARY BLADDER: CARCINOMA). Also, the outcome (Carcinogen: SUBCUTANEOUS, Dose [Inhibitor]: 1,2-DIMETHYLHYDRAZINE [540-73-8], Route [Inhibitor]: 0.125% IN DIET FOR 32 WK BEGINNING 1 WK POST LAST CARCINOGEN DOSE (STUDY DURATION: 36 WK), Strain/Sex: ORAL, Target Tissue: Type of Lesion: 20/21 (95%), 21/21 (100%), -5%, NOT SIGNIFICANT, Dose [Carcinogen]: 2-AMINO-1-METHYL-6-PHENYLIMIDAZO[4,5-B]PYRIDINE [105650-23-5], Promoter: ORAL) is listed as 9.1, 6.2, 32%, not significant.
